Experimental data reported in patent publication US12358983B2, “Combination of anti CD19 antibody with a BCL-2 inhibitor and uses thereof” (Incyte Corporation, priority 2016, dated 2025).
Marks after values point to notes of the source that are not given here.

How the values were obtained:
MEC-1 cells = test: Cytotoxicity (ADCC assay with NK effector cells) of MOR00208 and venetoclax alone and in combination in MEC-1 cells; format: cell-based
Excerpt: Cell lines tested: MEC-1 cells (DSMZ# ACC497). Culture conditions of cell lines used are according to supplier's information. Cell Medium: lscove's Modified Dulbecco's Medium (IMDM), Invitrogen, Cat No.: 31980; RPMI1640, Invitrogen, Cat No.: 31870; GlutaMAX, Invitrogen, CAT No.: 35050; FCS: Sigma CAT No.: F7524 LOT No.: 111M3396. NKs: RPMI1640, with GlutaMAX, Invitrogen, Cat No.: 31870, 10% FCS; Biocoll: Biochrome AG CAT No.: L6115 LOT No.: 0034D; MACS NK cell isolation kit: Miltenyi Biotec CAT No.: 130-092-657 LOT No.: 5150402327; venetoclax: Selleck Chem. CAT No.: S8048 LOT No.: S804803; FCS: Sigma CAT No.: F7524 LOT No.: 111M3396; and RefmAb33 (anti-RSV) with same Fc region as MOR00208.
The cytotoxic potential of MOR00208 and venetoclax alone and in combination were tested in the MEC-1 cell line (CLL). Target cell killing is measured using the following parameters: venetoclax mono treatment at concentrations of 3 μM, 6.5 μM, and 10 μM; MOR00208 mono treatment at concentrations of 0.01 pM, 0.1 pM, 1 pM, 10 pM, 100 pM and 10 nM, and the combination treatment of the listed venetoclax and MOR00208 concentrations. The following are used as controls: RefnnAb33, NK cells alone, MEC-1 cells alone or DMSO. In the venetoclax mono groups as well as in the MOR00208+venetoclax combination groups, target cells were pretreated with venetoclax or with DMSO control for 24 hours followed by removal of the dead cells prior to the ADCC assay. A dead cell removal kit was used to remove cells killed by the cytotoxic effect of venetoclax. The dead cell removal kit was implemented to mimick the removal of dead cells that also occurs in vivo and to prevent false negative interference of the dead cells with the subsequent ADCC assay. For the ADCC assay, target cells are counted and stained using CFSE at a final concentration of 1 μg/mL. For the control group, i.e. DMSO treated target cells, the effector: target (E:T) cell ratio was adjusted to 2:1, i.e. 1×10E6/nnL effector cells (NK cells) and 5×10E5/mL target cells (MEC-1 cells). […] The ADCC assays were performed as follows: using 96 well plates, 100 μL of MEC-1 target cell suspension was added per well, followed by 100 μL NK effector cell suspension per well. Mixed cell suspensions were centrifuged and resuspended in 100 μL antibody containing medium or the according control solution. The antibodies were diluted in a range of 10 nM-0.01 pM (corresponds to 1.5 μg/mL-1.5 pg/mL) in medium. The ADCC assays were incubated for 2 hours in a CO2-incubator at 37° C. After 10 minutes incubation on ice, 50 μL DAPI solution was added to each well (final concentration 1 μg/mL) and incubated for additional 10 minutes on ice. The ADCC measurements were performed on a BD FACSVerse instrument. Dead target cells were identified as DAPI positive cells.
Combination Index (CI) calculations are completed in order to determine synergy of the combination of the exemplified anti-CD19 antibody and venetoclax as compared to MOR00208 and venetoclax alone. Such calculations are described in Ting-Chao Chou, Theoretical Basis, Experimental Design, and Computerized Simulation of Synergism and Antagonism in Drug Combination Studies, Pharmacol Rev 58:621-681 (2006), which is incorporated by reference in its entirety and Chou TC, Talalay P, Quantitative analysis of dose-effect relationships: the combined effects of multiple drugs or enzyme inhibitors. Adv Enzyme Regul 22: 27-55 (1984), which is incorporated by reference in its entirety. The methods of Chou-Talalay are carried out using the CI-isobol method.
The median-effect equation models the effect of an inhibitor (such as a drug) as Fa/Fu=(D/D50)^m, where D is the dose, Fa and Fu is the fraction of the system affected and unaffected by the dose D (Fa+Fu=1); D50 is the dose producing the median effect (e.g. IC50, ED50, LD50). The constant m determines the shape of the dose-effect curve.

[1] = system: TOLEDO human lymphoma cell tumors; test: Subcutaneous human lymphoma cell xenograft model in SCID mice; details: for Median Survival (Days Post-Randomization): humane endpoint tumor volume 2000 mm3; for Median % Increase in Doubling Time (IDT) / Median % Increase in Lifespan (ILS): vs. PEP/PBS Control
Experimental: Toledo cell line and culture medium were purchased and provided by Oncodesign. […] The cells are adherent to plastic flasks.
A statistical test (analysis of variance, ANOVA) was performed to test for homogeneity between groups. MOR208 was injected intraperitoneally (IP) into the peritoneal cavity of mice. Combined substance was administered by oral gavage (per os, PO) via a gavage tube.
The treatment schedule initiated at D23 was as follows:
Animals from group 1 received one daily PO administration of PEP and one IP injection twice a week of PBS.
Animals from group 4 received one IP injection of MOR208 at 11 mg/kg/inj on D23, D27, D30, D34, D37 and D41 followed by a single IP injection of MOR208 at 11 mg/kg/inj on D48 (twice a week).
The viability and behavior were recorded every day. Body weights and tumor volume were measured twice a week. The length and width of the tumor were measured twice a week with calipers and the volume of the tumor was estimated by the formula:

CC1(C)CCC(CN2CCN(c3ccc(C(=O)NS(=O)(=O)c4ccc(NCC5CCOCC5)c([N+](=O)[O-])c4)c(Oc4cnc5[nH]ccc5c4)c3)CC2)=C(c2ccc(Cl)cc2)C1 [Venetoclax, 4-(4-{[2-(4-Chlorophenyl)-4,4-dimethyl-1-cyclohexen-1-yl]methyl}-1-piperazinyl)-N-({3-nitro-4-[(tetrahydro-2H-pyran-4-ylmethyl)amino]phenyl}sulfonyl)-2-(1H-pyrrolo[2,3-b]pyridin-5-yloxy)benzamide, reference compound]
Theoretical Venetoclax Dose (MEC-1 cells; Exp 1, same effect as MOR00208 1.50E+00 μg/mL + venetoclax 3.0 μM): 16.0 µM | Theoretical Venetoclax Dose (MEC-1 cells; Exp 1, same effect as MOR00208 1.50E+00 μg/mL + venetoclax 6.5 μM): 23.9 µM | Theoretical Venetoclax Dose (MEC-1 cells; Exp 1, same effect as MOR00208 1.50E+00 μg/mL + venetoclax 10.0 μM): 28.4 µM | Theoretical Venetoclax Dose (MEC-1 cells; Exp 1, same effect as MOR00208 1.50E−02 μg/mL + venetoclax 3.0 μM): 15.1 µM | Theoretical Venetoclax Dose (MEC-1 cells; Exp 1, same effect as MOR00208 1.50E−02 μg/mL + venetoclax 6.5 μM): 21.9 µM | Theoretical Venetoclax Dose (MEC-1 cells; Exp 1, same effect as MOR00208 1.50E−02 μg/mL + venetoclax 10.0 μM): 23.0 µM | Theoretical Venetoclax Dose (MEC-1 cells; Exp 1, same effect as MOR00208 1.50E−03 μg/mL + venetoclax 3.0 μM): 10.4 µM | Theoretical Venetoclax Dose (MEC-1 cells; Exp 1, same effect as MOR00208 1.50E−03 μg/mL + venetoclax 6.5 μM): 12.7 µM | Theoretical Venetoclax Dose (MEC-1 cells; Exp 1, same effect as MOR00208 1.50E−03 μg/mL + venetoclax 10.0 μM): 14.0 µM | Theoretical Venetoclax Dose (MEC-1 cells; Exp 1, same effect as MOR00208 1.50E−04 μg/mL + venetoclax 3.0 μM): 7.2 µM | Theoretical Venetoclax Dose (MEC-1 cells; Exp 1, same effect as MOR00208 1.50E−04 μg/mL + venetoclax 6.5 μM): 8.5 µM | Theoretical Venetoclax Dose (MEC-1 cells; Exp 1, same effect as MOR00208 1.50E−04 μg/mL + venetoclax 10.0 μM): 8.9 µM | Theoretical Venetoclax Dose (MEC-1 cells; Exp 1, same effect as MOR00208 1.50E−05 μg/mL + venetoclax 3.0 μM): 6.3 µM | Theoretical Venetoclax Dose (MEC-1 cells; Exp 1, same effect as MOR00208 1.50E−05 μg/mL + venetoclax 6.5 μM): 6.9 µM | Theoretical Venetoclax Dose (MEC-1 cells; Exp 1, same effect as MOR00208 1.50E−05 μg/mL + venetoclax 10.0 μM): 7.4 µM | Theoretical Venetoclax Dose (MEC-1 cells; Exp 1, same effect as MOR00208 1.50E−06 μg/mL + venetoclax 10.0 μM): 6.4 µM | Actual Venetoclax Effect (MEC-1 cells; Exp 1, venetoclax 3.0 μM): 8.9 % dead cells | Actual Venetoclax Effect (MEC-1 cells; Exp 1, venetoclax 6.5 μM): 17.7 % dead cells | Actual Venetoclax Effect (MEC-1 cells; Exp 1, venetoclax 10.0 μM): 38.8 % dead cells | Theoretical Venetoclax Dose (MEC-1 cells; Exp 2, same effect as MOR00208 1.50E+00 μg/mL + venetoclax 3.0 μM): 11.2 µM | Theoretical Venetoclax Dose (MEC-1 cells; Exp 2, same effect as MOR00208 1.50E+00 μg/mL + venetoclax 6.5 μM): 12.5 µM | Theoretical Venetoclax Dose (MEC-1 cells; Exp 2, same effect as MOR00208 1.50E+00 μg/mL + venetoclax 10.0 μM): 17.6 µM | Theoretical Venetoclax Dose (MEC-1 cells; Exp 2, same effect as MOR00208 1.50E−02 μg/mL + venetoclax 3.0 μM): 10.6 µM | Theoretical Venetoclax Dose (MEC-1 cells; Exp 2, same effect as MOR00208 1.50E−02 μg/mL + venetoclax 6.5 μM): 11.9 µM | Theoretical Venetoclax Dose (MEC-1 cells; Exp 2, same effect as MOR00208 1.50E−02 μg/mL + venetoclax 10.0 μM): 15.0 µM | Theoretical Venetoclax Dose (MEC-1 cells; Exp 2, same effect as MOR00208 1.50E−03 μg/mL + venetoclax 3.0 μM): 8.6 µM | Theoretical Venetoclax Dose (MEC-1 cells; Exp 2, same effect as MOR00208 1.50E−03 μg/mL + venetoclax 6.5 μM): 9.4 µM | Theoretical Venetoclax Dose (MEC-1 cells; Exp 2, same effect as MOR00208 1.50E−03 μg/mL + venetoclax 10.0 μM): 11.3 µM | Theoretical Venetoclax Dose (MEC-1 cells; Exp 2, same effect as MOR00208 1.50E−04 μg/mL + venetoclax 3.0 μM): 7.3 µM | Theoretical Venetoclax Dose (MEC-1 cells; Exp 2, same effect as MOR00208 1.50E−04 μg/mL + venetoclax 6.5 μM): 7.9 µM | Theoretical Venetoclax Dose (MEC-1 cells; Exp 2, same effect as MOR00208 1.50E−04 μg/mL + venetoclax 10.0 μM): 8.8 µM | Theoretical Venetoclax Dose (MEC-1 cells; Exp 2, same effect as MOR00208 1.50E−05 μg/mL + venetoclax 3.0 μM): 6.6 µM | Theoretical Venetoclax Dose (MEC-1 cells; Exp 2, same effect as MOR00208 1.50E−05 μg/mL + venetoclax 6.5 μM): 7.1 µM | Theoretical Venetoclax Dose (MEC-1 cells; Exp 2, same effect as MOR00208 1.50E−05 μg/mL + venetoclax 10.0 μM): 8.0 µM | Theoretical Venetoclax Dose (MEC-1 cells; Exp 2, same effect as MOR00208 1.50E−06 μg/mL + venetoclax 6.5 μM): 6.7 µM | Theoretical Venetoclax Dose (MEC-1 cells; Exp 2, same effect as MOR00208 1.50E−06 μg/mL + venetoclax 10.0 μM): 7.2 µM | Actual Venetoclax Effect (MEC-1 cells; Exp 2, venetoclax 3.0 μM): 19.9 % dead cells | Actual Venetoclax Effect (MEC-1 cells; Exp 2, venetoclax 6.5 μM): 32.4 % dead cells | Actual Venetoclax Effect (MEC-1 cells; Exp 2, venetoclax 10.0 μM): 73.9 % dead cells | Theoretical Venetoclax Dose (MEC-1 cells; Exp 3, same effect as MOR00208 1.50E+00 μg/mL + venetoclax 3.0 μM): 16.6 µM | Theoretical Venetoclax Dose (MEC-1 cells; Exp 3, same effect as MOR00208 1.50E+00 μg/mL + venetoclax 6.5 μM): 29.4 µM | Theoretical Venetoclax Dose (MEC-1 cells; Exp 3, same effect as MOR00208 1.50E+00 μg/mL + venetoclax 10.0 μM): 31.0 µM | Theoretical Venetoclax Dose (MEC-1 cells; Exp 3, same effect as MOR00208 1.50E−02 μg/mL + venetoclax 3.0 μM): 15.4 µM | Theoretical Venetoclax Dose (MEC-1 cells; Exp 3, same effect as MOR00208 1.50E−02 μg/mL + venetoclax 6.5 μM): 22.3 µM | Theoretical Venetoclax Dose (MEC-1 cells; Exp 3, same effect as MOR00208 1.50E−02 μg/mL + venetoclax 10.0 μM): 31.0 µM | Theoretical Venetoclax Dose (MEC-1 cells; Exp 3, same effect as MOR00208 1.50E−03 μg/mL + venetoclax 3.0 μM): 10.2 µM | Theoretical Venetoclax Dose (MEC-1 cells; Exp 3, same effect as MOR00208 1.50E−03 μg/mL + venetoclax 6.5 μM): 12.2 µM | Theoretical Venetoclax Dose (MEC-1 cells; Exp 3, same effect as MOR00208 1.50E−03 μg/mL + venetoclax 10.0 μM): 18.4 µM | Theoretical Venetoclax Dose (MEC-1 cells; Exp 3, same effect as MOR00208 1.50E−04 μg/mL + venetoclax 3.0 μM): 7.9 µM | Theoretical Venetoclax Dose (MEC-1 cells; Exp 3, same effect as MOR00208 1.50E−04 μg/mL + venetoclax 6.5 μM): 9.0 µM | Theoretical Venetoclax Dose (MEC-1 cells; Exp 3, same effect as MOR00208 1.50E−04 μg/mL + venetoclax 10.0 μM): 11.6 µM | Theoretical Venetoclax Dose (MEC-1 cells; Exp 3, same effect as MOR00208 1.50E−05 μg/mL + venetoclax 3.0 μM): 6.4 µM | Theoretical Venetoclax Dose (MEC-1 cells; Exp 3, same effect as MOR00208 1.50E−05 μg/mL + venetoclax 6.5 μM): 7.5 µM | Theoretical Venetoclax Dose (MEC-1 cells; Exp 3, same effect as MOR00208 1.50E−05 μg/mL + venetoclax 10.0 μM): 9.6 µM | Theoretical Venetoclax Dose (MEC-1 cells; Exp 3, same effect as MOR00208 1.50E−06 μg/mL + venetoclax 6.5 μM): 6.4 µM | Theoretical Venetoclax Dose (MEC-1 cells; Exp 3, same effect as MOR00208 1.50E−06 μg/mL + venetoclax 10.0 μM): 8.4 µM | Actual Venetoclax Effect (MEC-1 cells; Exp 3, venetoclax 3.0 μM): 7.7 % dead cells | Actual Venetoclax Effect (MEC-1 cells; Exp 3, venetoclax 6.5 μM): 16.3 % dead cells | Actual Venetoclax Effect (MEC-1 cells; Exp 3, venetoclax 10.0 μM): 48.1 % dead cells | Median Tumor Doubling Time ([1]; ABT-199 20 mg/kg p.o. daily): 9.6^a Days | Median Survival (Days Post-Randomization) ([1]; ABT-199 20 mg/kg p.o. daily): 30.0^a Days | Median % Increase in Doubling Time (IDT) ([1]; ABT-199 20 mg/kg p.o. daily): 44% | Median % Increase in Lifespan (ILS) ([1]; ABT-199 20 mg/kg p.o. daily): 43% | Median Tumor Doubling Time ([1]; ABT-199 40 mg/kg p.o. daily): 11.1^a Days | Median Survival (Days Post-Randomization) ([1]; ABT-199 40 mg/kg p.o. daily): 36.2^a Days | Median % Increase in Doubling Time (IDT) ([1]; ABT-199 40 mg/kg p.o. daily): 64% | Median % Increase in Lifespan (ILS) ([1]; ABT-199 40 mg/kg p.o. daily): 72%
